Experimental data published in US10377770B2 (Novartis AG, priority 2015, dated 2019).

Molecular target: C-Raf FL (full length CRAF with Y340E and Y341E activating mutations, co-expressed with h14-3-3 zeta) (Homo sapiens (Human), UniProt P04049, Y340E/Y341E)
Assay: In vitro Raf activity determination, AlphaScreen p-MEK readout, c-Raf (C-Raf FL)
Type: biochemical
Conditions: c-Raf approximately 4 nM, ATP 1 μM, pre-incubation 60 minutes, reaction 1 hour
Summary of the method: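 Full-length C-Raf (~4 nM) pre-incubated 60 min at room temperature with compound and kinase-dead biotinylated MEK1 (~10 nM) in Tris pH 7.5, 15 mM MgCl2, BSA, DTT. Reaction started with 1 μM ATP and run 1 h at room temperature. Phospho-MEK detected by AlphaScreen with anti-p-MEK antibody.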

Chain of C-Raf FL (full length CRAF with Y340E and Y341E activating mutations, co-expressed with h14-3-3 zeta) (P04049 whole entry Y340E/Y341E): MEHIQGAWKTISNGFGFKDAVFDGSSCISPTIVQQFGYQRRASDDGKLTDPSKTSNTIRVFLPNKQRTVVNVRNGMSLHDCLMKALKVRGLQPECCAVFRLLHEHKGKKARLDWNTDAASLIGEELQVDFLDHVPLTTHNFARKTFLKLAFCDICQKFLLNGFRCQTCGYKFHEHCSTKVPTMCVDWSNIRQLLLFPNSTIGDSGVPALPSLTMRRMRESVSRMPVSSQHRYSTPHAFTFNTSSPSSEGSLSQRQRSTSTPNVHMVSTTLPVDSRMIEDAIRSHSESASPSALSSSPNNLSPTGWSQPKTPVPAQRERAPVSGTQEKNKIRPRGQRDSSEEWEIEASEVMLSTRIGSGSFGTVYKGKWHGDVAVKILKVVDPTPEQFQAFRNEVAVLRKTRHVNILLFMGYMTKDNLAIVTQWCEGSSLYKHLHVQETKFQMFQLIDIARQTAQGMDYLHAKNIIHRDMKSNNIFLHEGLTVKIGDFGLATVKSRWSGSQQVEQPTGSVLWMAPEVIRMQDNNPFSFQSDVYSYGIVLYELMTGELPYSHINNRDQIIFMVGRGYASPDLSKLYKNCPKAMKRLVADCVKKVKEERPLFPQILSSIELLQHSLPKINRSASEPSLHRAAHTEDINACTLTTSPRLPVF
Chain of C-Raf FL (full length CRAF with Y340E and Y341E activating mutations, co-expressed with h14-3-3 zeta) (P63104 whole entry partner): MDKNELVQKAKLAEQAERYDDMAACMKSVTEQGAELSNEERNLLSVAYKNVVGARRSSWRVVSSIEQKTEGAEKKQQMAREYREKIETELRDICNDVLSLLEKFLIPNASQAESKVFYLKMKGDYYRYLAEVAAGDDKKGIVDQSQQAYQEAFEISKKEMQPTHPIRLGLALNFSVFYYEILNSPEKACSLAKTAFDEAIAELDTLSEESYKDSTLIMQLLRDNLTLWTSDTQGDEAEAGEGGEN

Row | SMILES | IC50
1 | Cc1ccc(NC(=O)c2ccnc(C(C)(C)F)c2)cc1-c1cc2c(cc1F)C[C@@](F)(CO)[C@@H]1COCCN21 [Example 483, N-(3-((4aS,5S)-5,8-difluoro-5-(hydroxymethyl)-1,2,4,4a,5,6-hexahydro-[1,4]oxazino[4,3-a]quinolin-9-yl)-4-methylphenyl)-2-(2-fluoropropan-2-yl)isonicotinamide] | 1 nM
2 | Cc1ncc(NC(=O)c2cccc(C(F)(F)F)c2)cc1-c1cc2c(cc1F)C[C@@](F)(CO)[C@@H]1COCCN21 [Example 484, N-(5-((4aS,5S)-5,8-difluoro-5-(hydroxymethyl)-1,2,4,4a,5,6-hexahydro-[1,4]oxazino[4,3-a]quinolin-9-yl)-6-methylpyridin-3-yl)-3-(trifluoromethyl) benzamide] | 4.1 nM
3 | Cc1ccc(NC(=O)c2ccnc(C(F)(F)F)c2)cc1-c1cc2c(cc1F)C[C@@](F)(CO)[C@@H]1COCCN21 [Example 485, N-(3-((4aS,5S)-5,8-difluoro-5-(hydroxymethyl)-1,2,4,4a,5,6-hexahydro-[1,4]oxazino[4,3-a]quinolin-9-yl)-4-methylphenyl)-2-(trifluoromethyl) isonicotinamide] | 0.3 nM
4 | Cc1ccc(NC(=O)c2cncc(C(F)(F)F)c2)cc1-c1cc2c(cc1F)C[C@@](F)(CO)[C@@H]1COCCN21 [Example 486, N-(3-((4aS,5S)-5,8-difluoro-5-(hydroxymethyl)-1,2,4,4a,5,6-hexahydro-[1,4]oxazino[4,3-a]quinolin-9-yl)-4-methylphenyl)-5-(trifluoromethyl) nicotinamide] | 1.6 nM
5 | Cc1ccc(NC(=O)c2cncc(C(F)(F)F)c2)cc1-c1cc2c(cc1F)C[C@](F)(CO)[C@@H]1COCCN21 [Example 487, N-(3-((4aS,5R)-5,8-difluoro-5-(hydroxymethyl)-1,2,4,4a,5,6-hexahydro-[1,4]oxazino[4,3-a]quinolin-9-yl)-4-methylphenyl)-5-(trifluoromethyl) nicotinamide] | 0.7 nM
6 | Cc1ccc(NC(=O)c2cncc(C(F)(F)F)c2)cc1-c1cc2c(cc1F)C[C@](F)(CO)[C@H]1COCCN21 [Example 488, N-(3-((4aR,5R)-5,8-difluoro-5-(hydroxymethyl)-1,2,4,4a,5,6-hexahydro-[1,4]oxazino[4,3-a]quinolin-9-yl)-4-methylphenyl)-5-(trifluoromethyl) nicotinamide] | 0.3 nM
7 | Cc1ccc(NC(=O)c2cncc(C(F)(F)F)c2)cc1-c1cc2c(cc1F)C[C@@](F)(CO)[C@H]1COCCN21 [Example 489, N-(3-((4aR,5S)-5,8-difluoro-5-(hydroxymethyl)-1,2,4,4a,5,6-hexahydro-[1,4]oxazino[4,3-a]quinolin-9-yl)-4-methylphenyl)-5-(trifluoromethyl) nicotinamide] | 0.4 nM
8 | Cc1ncc(NC(=O)c2cccc(C(F)(F)F)c2)cc1-c1cnc2c(c1)N1CCOC[C@H]1[C@@H](CO)C2 [Example 490, N-(5-((4aR,5S)-5-(hydroxymethyl)-1,2,4,4a,5,6-hexahydro-[1,4]oxazino[4,3-a][1,5]naphthyridin-9-yl)-6-methylpyridin-3-yl)-3 - (trifluoro-methyl)benzamide] | 0.5 nM
9 | Cc1ccc(NC(=O)c2ccnc(C(C)(F)F)c2)cc1-c1cnc2c(c1)N1CCOC[C@H]1[C@@H](CO)C2 [Example 492, 2-(1,1-difluoroethyl)-N-(3-((4aR,5S)-5-(hydroxymethyl)-1,2,4,4a,5,6-hexahydro-[1,4]oxazino[4,3-a][1,5]naphthyridin-9-yl)-4-methylphenyl)iso-nicotinamide] | 0.2 nM
10 | Cc1ncc(NC(=O)c2cccc(C(F)(F)F)c2)cc1-c1cnc2c(c1)N1CCOC[C@@H]1[C@H](CO)C2 [Example 493, N-(5-((4aS,5R)-5-(hydroxymethyl)-1,2,4,4a,5,6-hexahydro-[1,4]oxazino[4,3-a][1,5]naphthyridin-9-yl)-6-methylpyridin-3-yl)-3-(trifluorometh-yl)benzamide] | 0.1 nM
